TGI and GI50 data for 13 compounds are collected here from PubChem BioAssay (NCI).

Some test systems named below: 786-0 renal; A549 NSCLC; HCT-116 colon; HOP-62 NSCLC; HOP-92 NSCLC; HT29 colon; M14 melanoma; NCI-H522 lung; SF-539 CNS; MOLT-4 leukemia.
Assay in all cases: growth of human tumour cells (NCI), 48 h

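The compound was tested at five concentrations on cells cultured in 96-well plates, with a 48-hour exposure period. Here, GI50 denotes the concentration required for 50% inhibition of growth. The concentration for full growth arrest is given as TGI.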

As for `N#Cc1cc([N+](=O)[O-])ccc1NC(=O)C(=O)C(C(=O)/C=C/c1ccccc1)C1OC(=O)c2ccccc21` (configuration not stated), the TGI in the test with 786-0 renal, in the test with A549 NSCLC, with HCT-116 colon, in the test on HOP-62 NSCLC, in the test on HOP-92 NSCLC and with HT29 colon was more than 100 µM each time. In addition, the TGI in the test with M14 melanoma, in the test on NCI-H522 lung and with SF-539 CNS was more than 100 µM throughout.
As for `CC(C)=CC(=O)Cc1nc2cc(C)c(C)cc2[nH]c1=O`, the TGI with 786-0 renal is more than 100 µM; in the test with A549 NSCLC, more than 100 µM; in the test on HCT-116 colon, more than 100 µM; with HOP-62 NSCLC, more than 100 µM; with HOP-92 NSCLC, 99.7 µM; in the test with HT29 colon it was more than 100 µM. Moreover, the TGI with M14 melanoma, with MOLT-4 leukemia and in the test on SF-539 CNS was more than 100 µM throughout.
Consider `NCCNC(=S)S`, for which the TGI in the test on 786-0 renal, in the test with A549 NSCLC, in the test with HCT-116 colon, with HOP-62 NSCLC, in the test on HT29 colon and in the test on M14 melanoma was more than 100 µM throughout. Besides, the TGI in the test on MOLT-4 leukemia came to 77.9 µM; in the test on NCI-H522 lung it was 16.6 µM.
For the compound `CC1C=CC(=O)C(n2cc(F)c(=O)[nH]c2=O)O1` (configuration not stated), the TGI with 786-0 renal turned out to be 31.3 µM; in the test on A549 NSCLC it was 70.8 µM; in the test with HCT-116 colon, 29.1 µM; in the test with HOP-62 NSCLC it was 45.7 µM; in the test with HOP-92 NSCLC, 35.5 µM; in the test on HT29 colon, 32.5 µM. In addition, the results for the TGI with M14 melanoma, with MOLT-4 leukemia and with SF-539 CNS were 36.7 µM, 48.7 µM and 31.2 µM, respectively.
Consider `Cc1ccccc1CN1CC=c2ccccc2=N1`, for which the TGI in the test on 786-0 renal, in the test on A549 NSCLC, in the test on HOP-62 NSCLC, in the test on HOP-92 NSCLC, in the test with HT29 colon and with M14 melanoma was more than 100 µM throughout. This compound came in with a TGI in the test with SF-539 CNS of more than 100 µM.
Take `CC1=C(C(=O)NCc2ccccc2)C(c2ccccc2[N+](=O)[O-])C(C(=O)NCc2ccccc2)=C(C)N1`: the TGI with 786-0 renal is 25.4 µM; with A549 NSCLC it was 68.1 µM; in the test with HCT-116 colon, 19.7 µM; in the test with HOP-62 NSCLC it was 35.1 µM; in the test on HOP-92 NSCLC it was 36.6 µM; in the test on HT29 colon it was 28 µM. Further, the TGI in the test on M14 melanoma was 23.9 µM; with MOLT-4 leukemia, 50.5 µM; in the test on SF-539 CNS, 25.8 µM.
Turning to `c1ccc(CN(Cn2cccn2)Cn2cccn2)nc1`, the TGI in the test on 786-0 renal, with A549 NSCLC, in the test with HCT-116 colon, with HOP-62 NSCLC, in the test with HOP-92 NSCLC and with M14 melanoma was more than 100 µM each time. In addition, the TGI in the test with MOLT-4 leukemia and with NCI-H522 lung was more than 100 µM in each case.
As for `C[C@@H]1C=C2C(=O)O[C@@H]3CC[C@H](C1)[C@]23O`, the GI50 is 4.29 µM in the test with 786-0 renal; 12.7 µM in the test on A549 NSCLC; 3.13 µM in the test on HCT-116 colon; 17.8 µM with HOP-62 NSCLC; 3.46 µM in the test with HT29 colon; 4.28 µM in the test with M14 melanoma. The GI50 in the test with MOLT-4 leukemia is 3.08 µM; in the test with NCI-H522 lung it was 2.24 µM; in the test with SF-539 CNS it was 3.18 µM. Further, the TGI turned out to be 17.7 µM in the test with 786-0 renal; 47 µM with A549 NSCLC; 13.8 µM in the test on HCT-116 colon; 63.1 µM in the test on HOP-62 NSCLC; 13.4 µM in the test with HT29 colon; 22.8 µM in the test with M14 melanoma. In addition, the TGI is 21 µM with MOLT-4 leukemia, 9.43 µM in the test with NCI-H522 lung and 11.9 µM in the test with SF-539 CNS.
Regarding `Nc1ccn(C2CC(CO)C(O)C2O)c(=O)n1` (configuration not stated), the TGI in the test with 786-0 renal, in the test on A549 NSCLC, in the test on HCT-116 colon, with HOP-62 NSCLC, with M14 melanoma and in the test on MOLT-4 leukemia was more than 57.7 µM in each case. Further, the TGI in the test on NCI-H522 lung and in the test with SF-539 CNS was more than 57.7 µM throughout.
For `C=C(C)[C@@H]1CC[C@]2(C)[C@H](CC[C@@H]3[C@H]4[C@H]5OC[C@@]4(CCC5(C)C)CC[C@]32C)[C@@]1(C)CCCN`, the GI50 is 1.67 µM in the test on 786-0 renal; 1.69 µM with A549 NSCLC; 2 µM in the test with HOP-62 NSCLC; 1.37 µM with HOP-92 NSCLC; 1.79 µM in the test with M14 melanoma; 2.79 µM in the test on MOLT-4 leukemia. In the test with SF-539 CNS, the GI50 is 1.78 µM. Moreover, the TGI is 3.17 µM in the test on 786-0 renal; 3.37 µM with A549 NSCLC; 4.42 µM with HOP-62 NSCLC; 2.79 µM in the test on HOP-92 NSCLC; 3.58 µM in the test with M14 melanoma; 7.86 µM in the test with MOLT-4 leukemia. In the test with SF-539 CNS, this compound displayed a TGI of 3.22 µM.
For the compound `COc1cc(-c2cc(-c3nc4ccc(Cl)cc4[nH]3)[nH]n2)cc(OC)c1OC`, the GI50 was 5.32 µM with 786-0 renal; 2.96 µM with A549 NSCLC; 3.45 µM with HCT-116 colon; 3.11 µM in the test on HOP-62 NSCLC; 4.14 µM in the test on HT29 colon; 2.92 µM in the test with M14 melanoma. The GI50 in the test on MOLT-4 leukemia was 2.02 µM; with NCI-H522 lung, 1.9 µM; with SF-539 CNS it was 4.66 µM. The TGI was 18.3 µM with 786-0 renal; 13.1 µM in the test with A549 NSCLC; 12.2 µM with HCT-116 colon; 10.7 µM in the test with HOP-62 NSCLC; 16.4 µM in the test on HT29 colon; 9.96 µM in the test on M14 melanoma. Besides, the values for the TGI with MOLT-4 leukemia, with NCI-H522 lung and in the test on SF-539 CNS were 4.82 µM, 5.73 µM and 18.3 µM, respectively.
With `CN(C)CCNC(=O)c1cccc2[nH]c(-c3ccccc3)nc12`, the TGI with 786-0 renal is more than 100 µM; with A549 NSCLC, 31.7 µM; in the test on HCT-116 colon, 27.5 µM; in the test with HOP-62 NSCLC it was 52.8 µM; in the test with HOP-92 NSCLC, 42.1 µM; in the test on HT29 colon, 57 µM. The figures for the TGI in the test on M14 melanoma, with MOLT-4 leukemia and in the test with SF-539 CNS were 31.1 µM, 59.6 µM and 26.2 µM, respectively.
For `Nc1c(C(=O)Nc2ccccc2Cl)sc2nc3c(cc12)CCCCCC3`, the GI50 is 1.75 µM in the test with 786-0 renal; 4.54 µM with A549 NSCLC; 1.95 µM in the test on HCT-116 colon; 1.77 µM in the test with HOP-92 NSCLC; 2.39 µM in the test with HT29 colon; 2.25 µM in the test with M14 melanoma. The GI50 in the test with NCI-H522 lung was 13.6 µM; in the test on SF-539 CNS, 2.65 µM. Further, the TGI in the test on 786-0 renal was determined as 3.27 µM; in the test on A549 NSCLC it was 73.2 µM; with HCT-116 colon, 6.6 µM; with HOP-92 NSCLC, 6.54 µM; in the test on HT29 colon, 13.4 µM; with M14 melanoma it was 95.1 µM. The TGI in the test on NCI-H522 lung amounted to 91.1 µM; in the test with SF-539 CNS, 8.12 µM.
